Laboratory results: ChEMBL document CHEMBL3885881, “DrugMatrix”

Species on record: Rattus norvegicus
Experiment: DrugMatrix - Regimen: Daily Repeat
Type: toxicity, organism-based, Sprague-Dawley
Design: regimen Daily Repeat, gender Male, age 6-8 weeks
Conditions: in vivo, po, route oral GAVAGE; for ABSOLUTE BASOPHIL / ABSOLUTE EOSINOPHIL / ABSOLUTE LYMPHOCYTE / ABSOLUTE MONOCYTE / ABSOLUTE SEGMENTED NEUTROPHIL / BASOPHIL / EOSINOPHIL / ERYTHROCYTE COUNT / HEMATOCRIT / HEMOGLOBIN / LEUKOCYTE COUNT / LYMPHOCYTE / MEAN CORPUSCULAR HEMOGLOBIN / MEAN CORPUSCULAR HEMOGLOBIN CONCENTRATION / MEAN CORPUSCULAR VOLUME / MONOCYTE / NEUTROPHIL / NUCLEATED RED BLOOD CELLS / PLATELET COUNT: tissue Blood; for ALANINE AMINOTRANSFERASE / ALBUMIN / ALKALINE PHOSPHATASE / ASPARTATE AMINOTRANSFERASE / BLOOD UREA NITROGEN / CARBON DIOXIDE / CHLORIDE / CHOLESTEROL / CREATINE PHOSPHOKINASE / CREATININE / GLUCOSE / LACTATE DEHYDROGENASE / LIPASE / PHOSPHORUS / POTASSIUM / SODIUM / TOTAL BILIRUBIN / TOTAL PROTEIN / URIC ACID: tissue Plasma
[1] = 2000 mg/kg, 72 h, dose level High, time 3 day, […]
[2] = 2000 mg/kg, 120 h, dose level High, time 5 day, […]
[3] = […], 72 h, dose 0.33 mg/Kg, dose level Low, time 3 day
[4] = […], 120 h, dose 0.33 mg/Kg, dose level Low, time 5 day

COc1ccc2[nH]cc(CCNC(C)=O)c2c1 [MELATONIN]
ABSOLUTE BASOPHIL [1]: 0 CELLS/uL
ABSOLUTE EOSINOPHIL [1]: 23.67 CELLS/uL
ABSOLUTE LYMPHOCYTE [1]: 9249.33 CELLS/uL
ABSOLUTE MONOCYTE [1]: 250.67 CELLS/uL
ABSOLUTE SEGMENTED NEUTROPHIL [1]: 1876.33 CELLS/uL
BASOPHIL [1]: 0%
EOSINOPHIL [1]: 0.33%
ERYTHROCYTE COUNT [1]: 5.38 x10E6/uL
HEMATOCRIT [1]: 32.93%
HEMOGLOBIN [1]: 13.5 G/DL
LEUKOCYTE COUNT [1]: 11.4 x10E3/uL
LYMPHOCYTE [1]: 82.33%
MEAN CORPUSCULAR HEMOGLOBIN [1]: 25.17 pg
MEAN CORPUSCULAR HEMOGLOBIN CONCENTRATION [1]: 41.03 G/DL
MEAN CORPUSCULAR VOLUME [1]: 61.27 fL
MONOCYTE [1]: 2%
NEUTROPHIL [1]: 15.33%
NUCLEATED RED BLOOD CELLS [1]: 0 /100WBC
PLATELET COUNT [1]: 1209.67 x10E3/uL
ALANINE AMINOTRANSFERASE [1]: 115 u/L
ALBUMIN [1]: 3.3 G/DL
ALKALINE PHOSPHATASE [1]: 505.67 u/L
ASPARTATE AMINOTRANSFERASE [1]: 128.33 u/L
BLOOD UREA NITROGEN [1]: 15 mg/dL
CARBON DIOXIDE [1]: 25.67 mmol/L
CHLORIDE [1]: 100.33 MEQ/L
CHOLESTEROL [1]: 84 mg/dL
CREATINE PHOSPHOKINASE [1]: 757.33 u/L
CREATININE [1]: 0.38 mg/dL
GLUCOSE [1]: 155 mg/dL
LACTATE DEHYDROGENASE [1]: 369.33 u/L
LIPASE [1]: 11.67 u/L
PHOSPHORUS [1]: 13.07 mg/dL
POTASSIUM [1]: 6.08 MEQ/L
SODIUM [1]: 140.4 MEQ/L
TOTAL BILIRUBIN [1]: 0.5 mg/dL
TOTAL PROTEIN [1]: 4.6 G/DL
URIC ACID [1]: 1.43 mg/dL
ABSOLUTE BASOPHIL [2]: 0 CELLS/uL
ABSOLUTE EOSINOPHIL [2]: 0 CELLS/uL
ABSOLUTE LYMPHOCYTE [2]: 18071 CELLS/uL
ABSOLUTE MONOCYTE [2]: 251 CELLS/uL
ABSOLUTE SEGMENTED NEUTROPHIL [2]: 1211.33 CELLS/uL
BASOPHIL [2]: 0%
EOSINOPHIL [2]: 0%
ERYTHROCYTE COUNT [2]: 6.07 x10E6/uL
HEMATOCRIT [2]: 38.13%
HEMOGLOBIN [2]: 15.13 G/DL
LEUKOCYTE COUNT [2]: 19.53 x10E3/uL
LYMPHOCYTE [2]: 92.67%
MEAN CORPUSCULAR HEMOGLOBIN [2]: 24.9 pg
MEAN CORPUSCULAR HEMOGLOBIN CONCENTRATION [2]: 39.7 G/DL
MEAN CORPUSCULAR VOLUME [2]: 62.77 fL
MONOCYTE [2]: 1.33%
NEUTROPHIL [2]: 6%
NUCLEATED RED BLOOD CELLS [2]: 0 /100WBC
PLATELET COUNT [2]: 1278.33 x10E3/uL
ALANINE AMINOTRANSFERASE [2]: 124.67 u/L
ALBUMIN [2]: 3.73 G/DL
ALKALINE PHOSPHATASE [2]: 553.33 u/L
ASPARTATE AMINOTRANSFERASE [2]: 154.67 u/L
BLOOD UREA NITROGEN [2]: 19 mg/dL
CARBON DIOXIDE [2]: 32 mmol/L
CHLORIDE [2]: 100.33 MEQ/L
CHOLESTEROL [2]: 99 mg/dL
CREATINE PHOSPHOKINASE [2]: 788.67 u/L
CREATININE [2]: 0.24 mg/dL
GLUCOSE [2]: 136 mg/dL
LACTATE DEHYDROGENASE [2]: 320.67 u/L
LIPASE [2]: 12.33 u/L
PHOSPHORUS [2]: 11.03 mg/dL
POTASSIUM [2]: 6.53 MEQ/L
SODIUM [2]: 142.13 MEQ/L
TOTAL BILIRUBIN [2]: 0.4 mg/dL
TOTAL PROTEIN [2]: 5.07 G/DL
URIC ACID [2]: 1.2 mg/dL
ABSOLUTE BASOPHIL [3]: 0 CELLS/uL
ABSOLUTE EOSINOPHIL [3]: 0 CELLS/uL
ABSOLUTE LYMPHOCYTE [3]: 12175.67 CELLS/uL
ABSOLUTE MONOCYTE [3]: 180.67 CELLS/uL
ABSOLUTE SEGMENTED NEUTROPHIL [3]: 1643.67 CELLS/uL
BASOPHIL [3]: 0%
EOSINOPHIL [3]: 0%
ERYTHROCYTE COUNT [3]: 5.39 x10E6/uL
HEMATOCRIT [3]: 34.47%
HEMOGLOBIN [3]: 13.5 G/DL
LEUKOCYTE COUNT [3]: 14 x10E3/uL
LYMPHOCYTE [3]: 87.33%
MEAN CORPUSCULAR HEMOGLOBIN [3]: 25.1 pg
MEAN CORPUSCULAR HEMOGLOBIN CONCENTRATION [3]: 39.17 G/DL
MEAN CORPUSCULAR VOLUME [3]: 64.03 fL
MONOCYTE [3]: 1.33%
NEUTROPHIL [3]: 11.33%
NUCLEATED RED BLOOD CELLS [3]: 0 /100WBC
PLATELET COUNT [3]: 1125.33 x10E3/uL
ALANINE AMINOTRANSFERASE [3]: 65 u/L
ALBUMIN [3]: 4 G/DL
ALKALINE PHOSPHATASE [3]: 447.33 u/L
ASPARTATE AMINOTRANSFERASE [3]: 76.67 u/L
BLOOD UREA NITROGEN [3]: 13.33 mg/dL
CARBON DIOXIDE [3]: 31 mmol/L
CHLORIDE [3]: 102 MEQ/L
CHOLESTEROL [3]: 74.33 mg/dL
CREATINE PHOSPHOKINASE [3]: 191.33 u/L
CREATININE [3]: 0.26 mg/dL
GLUCOSE [3]: 163.33 mg/dL
LACTATE DEHYDROGENASE [3]: 156.67 u/L
LIPASE [3]: 10.33 u/L
PHOSPHORUS [3]: 11.6 mg/dL
POTASSIUM [3]: 6.23 MEQ/L
SODIUM [3]: 142.1 MEQ/L
TOTAL BILIRUBIN [3]: 0.2 mg/dL
TOTAL PROTEIN [3]: 5.03 G/DL
URIC ACID [3]: 1.47 mg/dL
ABSOLUTE BASOPHIL [4]: 0 CELLS/uL
ABSOLUTE EOSINOPHIL [4]: 0 CELLS/uL
ABSOLUTE LYMPHOCYTE [4]: 12476.67 CELLS/uL
ABSOLUTE MONOCYTE [4]: 229.67 CELLS/uL
ABSOLUTE SEGMENTED NEUTROPHIL [4]: 1393.67 CELLS/uL
BASOPHIL [4]: 0%
EOSINOPHIL [4]: 0%
ERYTHROCYTE COUNT [4]: 5.39 x10E6/uL
HEMATOCRIT [4]: 32.43%
HEMOGLOBIN [4]: 13.13 G/DL
LEUKOCYTE COUNT [4]: 14.1 x10E3/uL
LYMPHOCYTE [4]: 88.33%
MEAN CORPUSCULAR HEMOGLOBIN [4]: 24.4 pg
MEAN CORPUSCULAR HEMOGLOBIN CONCENTRATION [4]: 40.53 G/DL
MEAN CORPUSCULAR VOLUME [4]: 60.23 fL
MONOCYTE [4]: 1.67%
NEUTROPHIL [4]: 10%
NUCLEATED RED BLOOD CELLS [4]: 0 /100WBC
PLATELET COUNT [4]: 1131.67 x10E3/uL
ALANINE AMINOTRANSFERASE [4]: 56.33 u/L
ALBUMIN [4]: 4.1 G/DL
ALKALINE PHOSPHATASE [4]: 363.67 u/L
ASPARTATE AMINOTRANSFERASE [4]: 76 u/L
BLOOD UREA NITROGEN [4]: 16 mg/dL
CARBON DIOXIDE [4]: 30 mmol/L
CHLORIDE [4]: 102 MEQ/L
CHOLESTEROL [4]: 64 mg/dL
CREATINE PHOSPHOKINASE [4]: 170.33 u/L
CREATININE [4]: 0.24 mg/dL
GLUCOSE [4]: 163 mg/dL
LACTATE DEHYDROGENASE [4]: 89.33 u/L
LIPASE [4]: 10.67 u/L
PHOSPHORUS [4]: 10.7 mg/dL
POTASSIUM [4]: 5.96 MEQ/L
SODIUM [4]: 142.07 MEQ/L
TOTAL BILIRUBIN [4]: 0.17 mg/dL
TOTAL PROTEIN [4]: 5.53 G/DL
URIC ACID [4]: 1.3 mg/dL

COc1ccc(CCN(C)CCCC(C#N)(c2ccc(OC)c(OC)c2)C(C)C)cc1OC (centres undefined)
POTASSIUM (20 mg/kg, 72 h, dose level Low, time 3 day, vehicle 100 % WATER): 6.68 MEQ/L
POTASSIUM (20 mg/kg, 120 h, dose level Low, time 5 day, vehicle 100 % WATER): 6.29 MEQ/L
